Assay results reported in US20160002247A1, “8-SUBSTITUTED IMIDAZOPYRIMIDINONE DERIVATIVE HAVING AUTOTAXIN INHIBITORY ACTIVITY” (THE UNIVERSITY OF TOKYO, priority 2013, published 2016).

What follows are compounds tested against T1, Human autotaxin enzyme (Homo sapiens, UniProt Q13822) (assay: Evaluation of autotaxin inhibitor, Method B (Test Example 2): TG-mTMP fluorescence). Conditions: Assay Method B (Test Example 2), human autotaxin; read-out: Inhibitory Activity (autotaxin enzyme inhibitory activity, IC50 class).
T1 construct: purchased R&D System
Format: biochemical
Description: (Method B) Evaluation of Autotaxin Inhibitor
Solution A containing 25 mM Tris-HCl buffer (pH7.5), 100 mM NaCl, 5 mM MgCl2 and 0.1% BSA was prepared. Human autotaxin enzyme (purchased from R&D System) was diluted with Solution A, and 5 μL of which was added to a solution of test compound in DMSO. Furthermore, 5 μl of 0.5 μM TG-mTMP in Solution A was added and allowed to react at room temperature for 2 hours. 5 μl of 150 mM EDTA in Solution A was added to quench the reaction, and the fluorescent dye TokyoGreen, which was produced by the reaction, was detected. The fluorescence was detected using ViewLux (PerkinElmer, Inc.) with an excitation wavelength of 480 nm and a fluorescence wavelength of 540 nm.

Structure (SMILES) | IC50 [nM]
CCCCCn1c(C)cc(=O)n2cc(-c3ccccc3)nc12 [Compound 138] | 100 to 1000
Cc1cc(=O)n2cc(-c3ccc(Cl)cc3)nc2n1CC1CCCO1 (centres unmarked) [Compound 107] | 100 to 1000
CCCCCn1c(C)cc(=O)n2cc(-c3ccsc3)nc12 [Compound 144] | 100 to 1000
CCCCCn1c(-c2ccc(N3CCOCC3)cc2)cc(=O)n2cc(-c3ccc(Cl)cc3)nc12 [Compound 421] | 10 to 100
CCCCCn1c(NCc2ccc(C(=O)OC)cc2)cc(=O)n2cc(-c3ccc(Cl)cc3)nc12 [Compound 177, methyl 4-((2-(4-chlorophenyl)-5-oxo-8-pentyl-5,8-dihydroimidazo[1,2-a]pyrimidin-7-ylamino)methyl)benzoate] | 10 to 100
N#CCCCCn1c(-c2ccc(C(N)=O)cc2)cc(=O)n2cc(-c3ccc(C#N)cc3)nc12 [Compound 385] | < 10
CCCCCn1c(C)c(CCC(=O)OCC)c(=O)n2cc(-c3ccc(Cl)cc3)nc12 [Compound 200] | < 10
CCCCCn1c(C)cc(=O)n2c(CN)c(-c3ccc(Cl)cc3)nc12 [Compound 172] | > 1000
CCCCCn1c(-c2ccc(C(=O)NCCN3CCOCC3)cc2)cc(=O)n2cc(-c3ccc(Cl)cc3)nc12 [Compound 374] | < 10
CCCCCn1c(C)cc(=O)n2c(Br)c(-c3ccc(Cl)cc3)nc12 [Compound 171] | 10 to 100
CCCCCn1c(C)cc(=O)n2cc(-c3ccc(N4CCCC4=O)cc3)nc12 [Compound 148] | > 1000
CCCCCn1c(C)c(Cc2ccccc2)c(=O)n2cc(-c3ccc(Cl)cc3)nc12 [Compound 203] | 10 to 100
O=C(O)C1CCN(c2cc(=O)n3cc(-c4ccc(Cl)cc4)nc3n2CCCC(F)(F)F)CC1 [Compound 283] | < 10
Cc1cc(=O)n2cc(-c3ccc(Cl)cc3)nc2n1Cc1ccccn1 [Compound 114] | 10 to 100
N#Cc1ccc(-c2cn3c(=O)cc(N4CCC(C(=O)O)CC4)n(CCCC(F)(F)F)c3n2)cc1 [Compound 285] | < 10
Cc1cc(=O)n2cc(-c3ccc(Cl)cc3)nc2n1Cc1ccc(OC(F)(F)F)cc1 [Compound 122] | 100 to 1000
C#CCCCCCCCCCOc1cc(=O)n2cc(-c3ccc(Cl)cc3)nc2n1CCCCC [Compound 271] | > 1000
CCCCCn1c(C)c(Cc2ccccc2)c(=O)n2cc(-c3cccc(Cl)c3)nc12 [Compound 211] | > 1000
Cc1cc(=O)n2cc(-c3ccc(Cl)cc3)nc2n1Cc1ccc(Cl)c(Cl)c1 [Compound 104] | 10 to 100
Cc1cc(=O)n2cc(-c3ccc(Cl)cc3)nc2n1Cc1ccc(S(=O)(=O)C(F)F)cc1 [Compound 113] | 10 to 100
Cc1cc(=O)n2cc(-c3ccc(Cl)cc3)nc2n1CC1CCOC1 (centres unmarked) [Compound 118] | 100 to 1000
CCCCCn1c(C)cc(=O)n2c(CN(C)C)c(-c3ccc(Cl)cc3)nc12 [Compound 173] | > 1000
CCCCCn1c(C)cc(=O)n2cc(-c3ccc4c(c3)OCCCO4)nc12 [Compound 160] | 100 to 1000
CCCCCn1c(N2CCCC2CCC2CCCCC2)cc(=O)n2cc(-c3ccc(Cl)cc3)nc12 (centres unmarked) [Compound 279] | 10 to 100
CCCCCn1c(C)c(NC(C)=O)c(=O)n2cc(-c3cccc(Cl)c3)nc12 [Compound 209] | 100 to 1000
CCCCCn1c(N2CCN(CCCOC)CC2)cc(=O)n2cc(-c3ccc(Cl)cc3)nc12 [Compound 243] | < 10
CCCCCn1c(NCc2ccc(C(=O)OC)cc2)c(C)c(=O)n2cc(-c3ccc(Cl)cc3)nc12 [Compound 178, methyl 4-((2-(4-chlorophenyl)-6-methyl-5-oxo-8-pentyl-5,8-dihydroimidazo[1,2-a]pyrimidin-7-ylamino)methyl)benzoate] | < 10
CCCCCOC(=O)Cc1c(C)n(CCCCC)c2nc(-c3ccc(Cl)cc3)cn2c1=O [Compound 215] | < 10
Cc1cc(=O)n2cc(-c3ccc(Cl)cc3)nc2n1Cc1ccc(F)cc1F [Compound 101] | 10 to 100

Continued, values first:

IC50 [nM] | Structure (SMILES)
10 to 100 | CCCCCn1c(-c2ccccc2OC)cc(=O)n2cc(-c3ccc(Cl)cc3)nc12 [Compound 395]
10 to 100 | CCC(CC)Cn1c(C)cc(=O)n2cc(-c3ccc(Cl)cc3)nc12 [Compound 87]
< 10 | CCCCCn1c(CCC)cc(=O)n2cc(-c3ccc(Cl)cc3)nc12 [Compound 369]
< 10 | CCCCCn1c(C)c(CC(=O)NCC)c(=O)n2cc(-c3ccc(Cl)cc3)nc12 [Compound 181]
10 to 100 | CCCCCn1c(C2=CCCCC2)cc(=O)n2cc(-c3ccc(Cl)cc3)nc12 [Compound 408]
< 10 | CCCCCn1c(CO)cc(=O)n2cc(-c3ccc(Cl)cc3)nc12 [Compound 367]
10 to 100 | CCCCCn1c(N2CCCC2C)cc(=O)n2cc(-c3ccc(Cl)cc3)nc12 (centres unmarked) [Compound 259]
10 to 100 | Cc1cc(=O)n2cc(-c3ccc(Cl)cc3)nc2n1CCCCF [Compound 94]
< 10 | CCCCCn1c(C)cc(=O)n2cc(-c3ccc(OC(F)(F)F)cc3)nc12 [Compound 156]
10 to 100 | CCCCCn1c(-c2cccc(OC)c2)cc(=O)n2cc(-c3ccc(Cl)cc3)nc12 [Compound 396]
100 to 1000 | CCCCCn1c(Oc2cccnc2)cc(=O)n2cc(-c3ccc(Cl)cc3)nc12 [Compound 264]
10 to 100 | CCCCCn1c(/C=C/COC)cc(=O)n2cc(-c3ccc(Cl)cc3)nc12 [Compound 423]
10 to 100 | CCCCCn1c(-c2ccc(N(C)C)cc2)cc(=O)n2cc(-c3ccc(Cl)cc3)nc12 [Compound 399]
100 to 1000 | CCCCCn1c(OC(C)(C)C)cc(=O)n2cc(-c3ccc(Cl)cc3)nc12 [Compound 270]
< 10 | CCCCCn1c(NCCN2CCN(C)CC2)cc(=O)n2cc(-c3ccc(Cl)cc3)nc12 [Compound 227]
< 10 | CCCCCn1c(C)cc(=O)n2cc(-c3ccc(C(F)(F)F)cc3)nc12 [Compound 161]

IC50 [nM] | Structure (SMILES)
10 to 100 | CCCCCn1c(C)c(CC)c(=O)n2cc(-c3ccc(Cl)cc3)nc12 [Compound 205]
10 to 100 | CCCCCn1c(N2CCCC2C(C)CCC)cc(=O)n2cc(-c3ccc(Cl)cc3)nc12 (centres unmarked) [Compound 280]
< 10 | CCCCCn1c(-n2ccccc2=O)cc(=O)n2cc(-c3ccc(Cl)cc3)nc12 [Compound 426]
> 1000 | CCCCCn1c(C)c(CCOCC)c(=O)n2cc(-c3ccc(Cl)cc3)nc12 [Compound 216]
10 to 100 | CCCCCn1c(Cl)cc(=O)n2cc(-c3ccc(Cl)cc3)nc12 [Compound 176, 7-chloro-2-(4-chlorophenyl)-8-pentylimidazo[1,2-a]pyrimidin-5(8H)-one]
10 to 100 | CCCCCn1c(N2C[C@H]3CC[C@@H](C2)O3)cc(=O)n2cc(-c3ccc(Cl)cc3)nc12 [Compound 239]
> 1000 | CCCCCn1c(C)cc(=O)n2cc(-c3ccc(C(=O)OCC)cc3)nc12 [Compound 151]
10 to 100 | CCCCCn1c(OC2CCCC2)cc(=O)n2cc(-c3ccc(Cl)cc3)nc12 [Compound 260]
100 to 1000 | CCCCCn1c(OC(CC(C)C)CC(C)C)cc(=O)n2cc(-c3ccc(Cl)cc3)nc12 [Compound 262]
10 to 100 | CCCCCn1ccc(=O)n2cc(-c3ccc(Cl)cc3)nc12 [Compound 186]
< 10 | CCCCCn1c(C)c(CCOCC)c(=O)n2cc(-c3ccc(Cl)cc3)nc12 [Compound 214]
10 to 100 | CCCCCn1c(C)c(C)c(=O)n2cc(-c3ccc(Cl)cc3)nc12 [Compound 208]
10 to 100 | CCCCCn1c(NC)cc(=O)n2cc(-c3ccc(Cl)cc3)nc12 [Compound 248]
< 10 | CCCCCn1c(N2C(C)CCC2C)cc(=O)n2cc(-c3ccc(Cl)cc3)nc12 (centres unmarked) [Compound 255]
10 to 100 | CCCCCn1c(OCCC)cc(=O)n2cc(-c3ccc(Cl)cc3)nc12 [Compound 189]

Same assay, conditions: Assay Method: Method B (Test Example 2); read-out: Inhibitory Activity (Enzyme Inhibitory Activity, IC50)

Structure (SMILES) | IC50 [nM]
Cc1cc(=O)n2cc(-c3ccc(Cl)cc3)nc2n1CC1CCCC1 [Compound 57] | 10 to 100
Cc1cc(=O)n2cc(-c3ccc(Cl)cc3)nc2n1CC1CCC1 [Compound 77] | 10 to 100
CCOC(=O)c1ccc(Cn2c(C)cc(=O)n3cc(-c4ccc(Cl)cc4)nc23)cc1 [Compound 86] | 100 to 1000
Cc1cc(=O)n2cc(-c3ccc(Cl)cc3)nc2n1CCOC(C)C [Compound 76] | 100 to 1000
Cc1cc(=O)n2cc(-c3ccc(Cl)cc3)nc2n1CC1CCCCC1 [Compound 58] | 10 to 100
Cc1cc(=O)n2cc(-c3ccc(Cl)cc3)nc2n1CC1CC1 [Compound 66] | 10 to 100
Cc1cccc(Cn2c(C)cc(=O)n3cc(-c4ccc(Cl)cc4)nc23)c1 [Compound 60] | 100 to 1000

The remaining lines, values ahead:

IC50 [nM] | Structure (SMILES)
10 to 100 | CCC(=O)Cn1c(C)cc(=O)n2cc(-c3ccc(Cl)cc3)nc12 [Compound 28]
10 to 100 | CCCCCCn1c(C)cc(=O)n2cc(-c3ccc(Cl)cc3)nc12 [Compound 8]
10 to 100 | CC(=O)OCCn1c(C)cc(=O)n2cc(-c3ccc(Cl)cc3)nc12 [Compound 29]
100 to 1000 | Cc1cc(=O)n2cc(-c3ccc(Cl)cc3)nc2n1CCN(C)C [Compound 70]
< 10 | CCCCCn1c(C)cc(=O)n2cc(-c3ccc(Br)cc3)nc12 [Compound 18]
100 to 1000 | CC(=O)CCCn1c(C)cc(=O)n2cc(-c3ccc(Cl)cc3)nc12 [Compound 61]
10 to 100 | CCOCCn1c(C)cc(=O)n2cc(-c3ccc(Cl)cc3)nc12 [Compound 26]
10 to 100 | Cc1cc(=O)n2cc(-c3ccc(Cl)cc3)nc2n1CCC(C)C [Compound 79]
100 to 1000 | Cc1cc(=O)n2cc(-c3ccc(Cl)cc3)nc2n1CCCCCO [Compound 45]

Same assay, conditions: Inhibitory Activity (Enzyme Inhibitory Activity, IC50), Assay Method: Method B (Test Example 2)

IC50 [nM] | Structure (SMILES)
< 10 | CCOC(=O)Cn1c(C)cc(=O)n2cc(-c3ccc(Cl)cc3)nc12 [Compound 20]
